{"source": "patent US4547354A", "about": "(priority 1983, dated 1985)", "settings": "95° C., 4 hours", "note": "Like-named read-outs stand apart in the source and are kept apart here."}
{"molecule": "OO", "note": "[H2 O2, hydrogen peroxide]", "values": [{"measurement": "% Hydrogen Peroxide Recovery", "setting": "Example 1 of Table II: chlorobenzene 40.0 g, no acetone/methanol", "result": 101, "unit": "%"}, {"measurement": "Hydrogen Peroxide (mmoles) Recovered", "setting": "Example 1 of Table II: chlorobenzene 40.0 g, no acetone/methanol, 93.6 mmoles in", "result": 94.1, "unit": "mmol"}, {"measurement": "% Hydrogen Peroxide Recovery", "setting": "Example 2 of Table II: chlorobenzene 40.0 g, with acetone and methanol", "result": 67, "unit": "%"}, {"measurement": "Hydrogen Peroxide (mmoles) Recovered", "setting": "Example 2 of Table II: chlorobenzene 40.0 g, with acetone and methanol, 104.2 mmoles in", "result": 69.4, "unit": "mmol"}, {"measurement": "% Hydrogen Peroxide Recovery", "setting": "Example A: sulfuric acid, no chlorobenzene, no acetone/methanol", "result": 107, "unit": "%"}, {"measurement": "Hydrogen Peroxide (mmoles) Recovered", "setting": "Example A: sulfuric acid, no chlorobenzene, no acetone/methanol, 104.0 mmoles in", "result": 111.7, "unit": "mmol"}, {"measurement": "% Hydrogen Peroxide Recovery", "setting": "Example B: no chlorobenzene, with acetone and methanol", "result": 3, "unit": "%"}, {"measurement": "Hydrogen Peroxide (mmoles) Recovered", "setting": "Example B: no chlorobenzene, with acetone and methanol, 104.8 mmoles in", "result": 3.2, "unit": "mmol"}]}
